From patent publication US9809587B2, “Pesticidally active heterocyclic derivatives with sulphur containing substituents” (Syngenta Participations AG, priority 2014, dated 2017)

Key:
Type in all cases: in vivo
[1] = tested on: Aedes aegypti (Yellow Fever Mosquito); test: Activity against Aedes aegypti (yellow fever mosquito), dried deposits in tissue culture plates; settings: application rate of 200 ppm in ethanol, adult females, after 48 h
Method: Example B12: Activity Against Aedes aegypti (Yellow Fever Mosquito)
Test solutions, at an application rate of 200 ppm in ethanol, were applied to 12-well tissue culture plates. Once the deposits were dry, five, two to five days old adult female Aedes aegypti were added to each well, and sustained with a 10% sucrose solution in a cotton wool plug. Assessment of knockdown was made one hour after introduction, and mortality was assessed at 24 and 48 hours after introduction.
The following compounds gave at least 80% control of Aedes aegypti after 48 h: […]

[2] = tested on: Spodoptera littoralis (Egyqptian Cotton Leaf Worm); test: Spodoptera littoralis (Egyptian cotton leaf worm), sprayed cotton leaf discs; settings: foliar, 72 h, application rate of 200 ppm, L1 larvae on cotton leaf discs, 3 days after infestation
In short: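 Cotton leaf discs on agar were sprayed with aqueous dilutions made from 10′000 ppm DMSO stocks, then infested after drying with five L1 larvae. Mortality, anti-feedant effect and growth inhibition were scored against untreated discs 3 days after infestation. Control means at least one of these exceeds the untreated sample.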

[3] = tested on: Euschistus heros (Neotropical Brown Stink Bug); test: Euschistus heros (neotropical brown stink bug), sprayed soybean leaf; settings: 120 h, application rate of 200 ppm, N-2 nymphs on soybean leaf, 5 days after infestation
Method: Example B3: Euschistus heros (Neotropical Brown Stink Bug)
Soybean leaf on agar in 24-well microtiter plates were sprayed with aqueous test solutions prepared from 10′000 ppm DMSO stock solutions. After drying the leaf were infested with N-2 nymphs. The samples were assessed for mortality in comparison to untreated samples 5 days after infestation.

[4] = tested on: Plutella xylostella (Diamond Back Moth); test: Plutella xylostella (diamond back moth), treated artificial diet; settings: 120 h, application rate of 200 ppm, L2 larvae on artificial diet, 5 days after infestation, read-out: effect in at least one of the two categories (mortality or growth inhibition)
In short: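 Artificial diet treated with aqueous dilutions of DMSO stocks (10′000 ppm stock), dried, then infested with 10-15 L2 larvae per well. Mortality and growth inhibition assessed versus untreated controls 5 days after infestation.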

[5] = tested on: Myzus persicae (Green Peach Aphid); test: Myzus persicae (green peach aphid), sprayed sunflower leaf discs; settings: foliar, 144 h, application rate of 200 ppm, mixed ages on sunflower leaf discs, 6 days after infestation
Method: Example B4: Myzus persicae (Green Peach Aphid)
Sunflower leaf discs were placed on agar in a 24-well microtiter plate and sprayed with aqueous test solutions prepared from 10′000 ppm DMSO stock solutions. After drying, the leaf discs were infested with an aphid population of mixed ages. The samples were assessed for mortality 6 days after infestation.

[6] = tested on: Diabrotica balteata (Corn Root Worm); test: Diabrotica balteata (corn root worm), sprayed maize sprouts; settings: 96 h, application rate of 200 ppm, L2 larvae on maize sprouts, 4 days after infestation
Method: Example B2: Diabrotica balteata (Corn Root Worm)
Maize sprouts, placed on an agar layer in 24-well microtiter plates were treated with aqueous test solutions prepared from 10′000 ppm DMSO stock solutions by spraying. After drying, the plates were infested with L2 larvae (6 to 10 per well). The samples were assessed for mortality and growth inhibition in comparison to untreated samples 4 days after infestation.

[7] = tested on: Bemisia tabaci (Cotton White Fly); test: Bemisia tabaci (cotton white fly), sprayed cotton leaf discs; settings: foliar, 144 h, application rate of 200 ppm, adult white flies on cotton leaf discs, 6 days after incubation
Method: Example B1: Bemisia tabaci (Cotton White Fly)
Cotton leaf discs were placed on agar in 24-well microtiter plates and sprayed with aqueous test solutions prepared from 10′000 ppm DMSO stock solutions. After drying the leaf discs were infested with adult white flies. The samples were checked for mortality 6 days after incubation.

[8] = tested on: Spodoptera littoralis (Egyqptian Cotton Leaf Worm); test: Spodoptera littoralis (Egyptian cotton leaf worm), compound in agar taken up by lettuce roots; settings: 144 h, test rate of 12.5 ppm, uptake by lettuce roots from agar, 6 days after infestation, read-out: effect in at least one of the three categories (mortality, anti-feedancy, or growth inhibition)
In short: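 Compound mixed into agar from a 10′000 ppm DMSO stock and taken up over 7 days by lettuce roots; cut leaves then infested with Spodoptera eggs. Mortality, anti-feedant effect and growth inhibition scored against untreated samples 6 days after infestation.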

[9] = tested on: Thrips tabaci (Onion Thrips); test: Thrips tabaci (onion thrips), sprayed sunflower leaf discs; settings: foliar, 144 h, application rate of 200 ppm, mixed ages on sunflower leaf discs, 6 days after infestation
Method: Example B10: Thrips tabaci (Onion Thrips)
Sunflower leaf discs were placed on agar in 24-well microtiter plates and sprayed with aqueous test solutions prepared from 10′000 ppm DMSO stock solutions. After drying the leaf discs were infested with a thrips population of mixed ages. The samples were assessed for mortality 6 days after infestation.

[10] = tested on: Frankliniella occidentalis (Western Flower Thrips); test: Frankliniella occidentalis (western flower thrips), sprayed sunflower leaf discs; settings: foliar, 168 h, application rate of 200 ppm, mixed ages on sunflower leaf discs, 7 days after infestation
Method: Example B11: Frankliniella occidentalis (Western Flower Thrips)
Sunflower leaf discs were placed on agar in 24-well microtiter plates and sprayed with aqueous test solutions prepared from […] stock solutions. After drying the leaf discs were infested with a Frankliniella population of mixed ages. The samples were assessed for mortality 7 days after infestation.

[11] = tested on: Myzus persicae (Green Peach Aphid); test: Myzus persicae (green peach aphid), roots of pea seedlings in test solution; settings: 144 h, test rate of 24 ppm, roots of infested pea seedlings in test solution, 6 days
Method: Example B5: Myzus persicae (Green Peach Aphid)
Roots of pea seedlings infested with an aphid population of mixed ages were placed directly in the aqueous test solutions prepared from 10′000 DMSO stock solutions. The samples were assessed for mortality 6 days after placing seedlings in test solutions.

CCS(=O)(=O)c1cc(-n2ccc(C(F)(F)F)n2)ccc1-c1nc2cc(C(F)(F)F)ncc2n1C [Compound P90]
≥ 80%: pest or weed control at 200 ppm [1] | percent control (mortality, anti-feedant effect or growth inhibition) at 200 ppm [2] | mortality at 200 ppm [3] | percent effect (mortality or growth inhibition) at 200 ppm [4] | mortality at 200 ppm [5] | mortality at 200 ppm [6] | mortality at 200 ppm [7] | percent control (mortality, anti-feedancy or growth inhibition) at 12.5 ppm [8]

CCS(=O)(=O)c1cc(-c2ccc(C#N)cn2)cnc1-c1nc2cc(C(F)(F)F)ncc2n1C [Compound P91]
≥ 80%: percent control (mortality, anti-feedant effect or growth inhibition) at 200 ppm [2] | mortality at 200 ppm [3] | percent effect (mortality or growth inhibition) at 200 ppm [4] | mortality at 200 ppm [5] | mortality at 200 ppm [6] | mortality at 200 ppm [9] | mortality at 200 ppm [7] | mortality at 200 ppm [10] | percent control (mortality, anti-feedancy or growth inhibition) at 12.5 ppm [8]

CCS(=O)(=O)c1cc(-c2ncccn2)ccc1-c1nc2cc(C(F)(F)F)ncc2n1C [Compound P89]
≥ 80%: pest or weed control at 200 ppm [1] | percent control (mortality, anti-feedant effect or growth inhibition) at 200 ppm [2] | mortality at 200 ppm [3] | percent effect (mortality or growth inhibition) at 200 ppm [4] | mortality at 200 ppm [5] | mortality at 200 ppm [6] | mortality at 200 ppm [10] | percent control (mortality, anti-feedancy or growth inhibition) at 12.5 ppm [8]

CCS(=O)(=O)c1cc(-c2ccc(C(F)(F)F)cn2)cnc1-c1nc2cc(C(F)(F)F)ncc2n1C [Compound P19]
≥ 80%: pest or weed control at 200 ppm [1] | percent control (mortality, anti-feedant effect or growth inhibition) at 200 ppm [2] | mortality at 200 ppm [3] | percent effect (mortality or growth inhibition) at 200 ppm [4] | mortality at 200 ppm [5] | mortality at 200 ppm [6] | mortality at 200 ppm [7] | mortality at 200 ppm [10] | percent control (mortality, anti-feedancy or growth inhibition) at 12.5 ppm [8]

CCS(=O)(=O)c1cc(-c2ccccn2)cnc1-c1nc2cc(C(F)(F)F)ncc2n1C [Compound P18]
≥ 80%: pest or weed control at 200 ppm [1] | percent control (mortality, anti-feedant effect or growth inhibition) at 200 ppm [2] | mortality at 200 ppm [3] | mortality at 24 ppm [11] | percent effect (mortality or growth inhibition) at 200 ppm [4] | mortality at 200 ppm [5] | mortality at 200 ppm [10] | percent control (mortality, anti-feedancy or growth inhibition) at 12.5 ppm [8]

CCS(=O)(=O)c1cc(-c2nccc(C#N)n2)cnc1-c1nc2cc(C(F)(F)F)ncc2n1C [Compound P101]
≥ 80%: pest or weed control at 200 ppm [1] | percent control (mortality, anti-feedant effect or growth inhibition) at 200 ppm [2] | mortality at 200 ppm [3] | percent effect (mortality or growth inhibition) at 200 ppm [4] | mortality at 200 ppm [5] | mortality at 200 ppm [6]

CCS(=O)(=O)c1cc(-c2cc(C#N)ccn2)cnc1-c1nc2cc(C(F)(F)F)ncc2n1C [Compound P93]
≥ 80%: pest or weed control at 200 ppm [1] | percent control (mortality, anti-feedant effect or growth inhibition) at 200 ppm [2] | mortality at 200 ppm [3] | percent effect (mortality or growth inhibition) at 200 ppm [4] | mortality at 200 ppm [5] | mortality at 200 ppm [6] | mortality at 200 ppm [10] | percent control (mortality, anti-feedancy or growth inhibition) at 12.5 ppm [8]

CCS(=O)(=O)c1cc(-n2ccc(Cl)n2)cnc1-c1nc2cc(C(F)(F)F)ncc2n1C [Compound P88]
≥ 80%: pest or weed control at 200 ppm [1] | percent control (mortality, anti-feedant effect or growth inhibition) at 200 ppm [2] | mortality at 200 ppm [3] | percent effect (mortality or growth inhibition) at 200 ppm [4] | mortality at 200 ppm [5] | mortality at 200 ppm [6] | mortality at 200 ppm [7] | percent control (mortality, anti-feedancy or growth inhibition) at 12.5 ppm [8]

CCS(=O)(=O)c1cc(-c2cncnc2)cnc1-c1nc2cc(C(F)(F)F)ncc2n1C [Compound P8]
≥ 80%: percent control (mortality, anti-feedant effect or growth inhibition) at 200 ppm [2] | mortality at 200 ppm [3] | mortality at 24 ppm [11] | percent effect (mortality or growth inhibition) at 200 ppm [4] | mortality at 200 ppm [5] | mortality at 200 ppm [9] | mortality at 200 ppm [7] | mortality at 200 ppm [10]

CCS(=O)(=O)c1cc(-n2ccc(C(F)(F)F)n2)cnc1-c1nc2cc(C(F)(F)F)ncc2n1C [Compound P2, 2-[3-ethylsulfonyl-5-[3-(trifluoromethyl)pyrazol-1-yl]-2-pyridyl]-3-methyl-6-(trifluoromethyl)imidazo[4,5-c]pyridine]
≥ 80%: pest or weed control at 200 ppm [1] | percent control (mortality, anti-feedant effect or growth inhibition) at 200 ppm [2] | mortality at 200 ppm [3] | percent effect (mortality or growth inhibition) at 200 ppm [4] | mortality at 200 ppm [5] | mortality at 200 ppm [6] | mortality at 200 ppm [7] | percent control (mortality, anti-feedancy or growth inhibition) at 12.5 ppm [8]

CCS(=O)(=O)c1cc(-c2ccnc(C(F)(F)F)n2)cnc1-c1nc2cc(C(F)(F)F)ncc2n1C [Compound P108]
≥ 80%: pest or weed control at 200 ppm [1] | percent control (mortality, anti-feedant effect or growth inhibition) at 200 ppm [2] | mortality at 200 ppm [3] | percent effect (mortality or growth inhibition) at 200 ppm [4] | mortality at 200 ppm [5] | mortality at 200 ppm [6] | mortality at 200 ppm [7] | percent control (mortality, anti-feedancy or growth inhibition) at 12.5 ppm [8]

CCS(=O)(=O)c1cc(-c2cc(Cl)ccn2)cnc1-c1nc2cc(C(F)(F)F)ncc2n1C [Compound P92]
≥ 80%: pest or weed control at 200 ppm [1] | percent control (mortality, anti-feedant effect or growth inhibition) at 200 ppm [2] | mortality at 200 ppm [3] | percent effect (mortality or growth inhibition) at 200 ppm [4] | mortality at 200 ppm [5] | mortality at 200 ppm [6] | mortality at 200 ppm [10] | percent control (mortality, anti-feedancy or growth inhibition) at 12.5 ppm [8]
